Test results published in paper PMC5346980 (ACS Medicinal Chemistry Letters, 2017).
Read-outs that look alike come from different tables or passages of the source. Each block holds one compound with its values, some of them ahead of it.

Legend:
CYP3A4 = CYP3A4 (Homo sapiens, UniProt P08684); assay: Time-dependent CYP inhibition; format: in vitro ADME
[1] = monkeys; cited from earlier work
[2] = dogs; cited from earlier work
[3] = rats; cited from earlier work
BCRP = biological target: T1, BCRP (Homo sapiens, UniProt Q9UNQ0); assay: Transporter substrate assessment; format: in vitro ADME
T1 sequence (Q9UNQ0 1-655): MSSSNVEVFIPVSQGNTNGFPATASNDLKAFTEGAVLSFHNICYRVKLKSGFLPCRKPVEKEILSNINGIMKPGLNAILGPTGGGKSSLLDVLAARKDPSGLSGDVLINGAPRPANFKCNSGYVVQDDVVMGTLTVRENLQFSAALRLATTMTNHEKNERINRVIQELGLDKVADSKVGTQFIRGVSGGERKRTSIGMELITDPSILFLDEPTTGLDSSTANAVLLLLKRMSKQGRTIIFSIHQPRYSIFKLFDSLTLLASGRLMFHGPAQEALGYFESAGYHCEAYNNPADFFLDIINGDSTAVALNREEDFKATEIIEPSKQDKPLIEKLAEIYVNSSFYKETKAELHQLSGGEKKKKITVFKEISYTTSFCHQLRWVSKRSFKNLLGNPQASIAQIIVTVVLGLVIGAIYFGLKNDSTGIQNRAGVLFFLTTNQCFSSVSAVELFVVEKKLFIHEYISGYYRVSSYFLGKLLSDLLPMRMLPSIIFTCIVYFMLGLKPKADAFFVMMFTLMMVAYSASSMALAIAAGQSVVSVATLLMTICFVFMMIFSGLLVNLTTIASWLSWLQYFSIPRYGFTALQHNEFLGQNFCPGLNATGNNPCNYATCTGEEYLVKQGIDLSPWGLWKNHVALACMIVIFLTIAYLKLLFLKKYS

P-gp = P-gp (Homo sapiens, UniProt P08183); assay: Transporter substrate assessment; format: in vitro ADME
CYP2C19 = CYP2C19 (Homo sapiens, UniProt P33261); assay: Time-dependent CYP inhibition; format: in vitro ADME
[4] = biological target: purified Hb (a mixture of HbA and HbS) (Homo sapiens, UniProt P69905); assay: Hemoximetry oxygen equilibrium curves; format: biochemical; settings: des-formyl compound lacking the aldehyde
Purified Hb = Purified Hb (Homo sapiens, UniProt P69905); assay: Time dependence of hemoglobin-oxygen affinity; format: biochemical; settings: Purified Hb 25 µM, 37 °C
Purified Hb, sequence (P69905 2-142 limits assumed): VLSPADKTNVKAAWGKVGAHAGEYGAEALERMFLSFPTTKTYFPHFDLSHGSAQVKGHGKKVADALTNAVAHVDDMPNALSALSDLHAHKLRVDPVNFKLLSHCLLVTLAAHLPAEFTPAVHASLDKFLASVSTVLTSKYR

CYP3A4, sequence (P08684 whole entry): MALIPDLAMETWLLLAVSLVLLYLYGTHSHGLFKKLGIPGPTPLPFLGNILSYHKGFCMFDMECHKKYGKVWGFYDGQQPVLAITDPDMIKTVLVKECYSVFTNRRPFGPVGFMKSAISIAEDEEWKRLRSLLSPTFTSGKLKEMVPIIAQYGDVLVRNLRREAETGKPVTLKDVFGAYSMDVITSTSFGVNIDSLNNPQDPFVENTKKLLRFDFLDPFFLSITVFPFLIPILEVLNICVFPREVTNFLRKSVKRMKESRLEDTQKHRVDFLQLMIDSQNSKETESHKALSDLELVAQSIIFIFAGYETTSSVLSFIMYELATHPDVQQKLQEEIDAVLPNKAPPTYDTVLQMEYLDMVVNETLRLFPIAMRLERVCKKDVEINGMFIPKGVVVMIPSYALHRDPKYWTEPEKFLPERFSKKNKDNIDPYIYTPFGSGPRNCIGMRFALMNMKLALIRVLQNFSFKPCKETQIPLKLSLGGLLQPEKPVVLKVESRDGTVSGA
purified Hb (a mixture of HbA and HbS), sequence (P69905 2-142 limits assumed): as the sequence (P69905 2-142 limits assumed) above
P-gp, sequence (P08183 whole entry): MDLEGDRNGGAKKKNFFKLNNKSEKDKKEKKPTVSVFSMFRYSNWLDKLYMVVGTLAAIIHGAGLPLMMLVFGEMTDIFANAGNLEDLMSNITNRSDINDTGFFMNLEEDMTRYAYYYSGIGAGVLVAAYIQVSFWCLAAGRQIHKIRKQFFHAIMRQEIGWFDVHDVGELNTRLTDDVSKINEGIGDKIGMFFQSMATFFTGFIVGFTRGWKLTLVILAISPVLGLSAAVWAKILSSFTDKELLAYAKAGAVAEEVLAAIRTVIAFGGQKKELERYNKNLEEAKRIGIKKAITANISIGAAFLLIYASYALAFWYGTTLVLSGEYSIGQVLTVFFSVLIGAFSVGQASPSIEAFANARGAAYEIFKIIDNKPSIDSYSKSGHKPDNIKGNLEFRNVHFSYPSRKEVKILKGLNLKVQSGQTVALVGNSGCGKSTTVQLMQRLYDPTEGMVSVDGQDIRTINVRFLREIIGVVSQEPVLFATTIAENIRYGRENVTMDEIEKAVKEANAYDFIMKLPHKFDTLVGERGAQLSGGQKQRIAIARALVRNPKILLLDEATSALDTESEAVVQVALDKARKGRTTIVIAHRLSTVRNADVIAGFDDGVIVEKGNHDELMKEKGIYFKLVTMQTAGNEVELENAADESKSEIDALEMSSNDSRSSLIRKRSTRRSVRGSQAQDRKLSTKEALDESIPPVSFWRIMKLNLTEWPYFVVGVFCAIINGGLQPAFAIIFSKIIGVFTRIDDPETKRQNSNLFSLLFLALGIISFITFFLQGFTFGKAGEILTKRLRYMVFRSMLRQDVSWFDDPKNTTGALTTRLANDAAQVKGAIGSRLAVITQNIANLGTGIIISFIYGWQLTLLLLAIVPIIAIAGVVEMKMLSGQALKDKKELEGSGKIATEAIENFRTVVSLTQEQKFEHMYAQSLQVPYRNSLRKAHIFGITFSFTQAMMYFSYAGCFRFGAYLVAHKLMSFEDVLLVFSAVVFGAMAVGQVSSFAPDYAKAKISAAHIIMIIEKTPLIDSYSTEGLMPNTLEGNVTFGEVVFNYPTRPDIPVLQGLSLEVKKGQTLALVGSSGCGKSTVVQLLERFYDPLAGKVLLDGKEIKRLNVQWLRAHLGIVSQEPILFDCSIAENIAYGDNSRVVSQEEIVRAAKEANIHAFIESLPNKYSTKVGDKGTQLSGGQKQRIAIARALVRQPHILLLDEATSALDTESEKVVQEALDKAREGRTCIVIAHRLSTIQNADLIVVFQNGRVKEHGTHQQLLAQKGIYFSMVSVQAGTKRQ
CYP2C19, sequence (P33261 whole entry): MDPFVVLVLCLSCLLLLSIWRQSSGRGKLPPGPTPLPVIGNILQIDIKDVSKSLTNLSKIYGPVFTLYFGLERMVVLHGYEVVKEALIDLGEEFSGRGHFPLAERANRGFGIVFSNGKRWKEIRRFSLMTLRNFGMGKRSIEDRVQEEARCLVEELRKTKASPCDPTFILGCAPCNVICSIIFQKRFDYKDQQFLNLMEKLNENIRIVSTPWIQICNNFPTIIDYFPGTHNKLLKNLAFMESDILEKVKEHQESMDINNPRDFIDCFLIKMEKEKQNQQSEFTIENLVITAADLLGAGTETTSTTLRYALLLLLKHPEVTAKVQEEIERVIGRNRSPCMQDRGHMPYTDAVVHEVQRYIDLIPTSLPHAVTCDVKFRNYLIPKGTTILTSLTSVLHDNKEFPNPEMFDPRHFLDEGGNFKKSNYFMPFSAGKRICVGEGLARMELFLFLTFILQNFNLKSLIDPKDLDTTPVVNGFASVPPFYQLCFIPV

- time-dependent inhibition (CYP3A4): no significant time-dependent inhibition
- substrate for BCRP transporter (BCRP): not a substrate
- substrate for P-gp transporter (P-gp): not a substrate
- time-dependent inhibition (CYP2C19): no significant time-dependent inhibition
SMILES: CC(C)n1nccc1-c1ncccc1COc1cccc(O)c1C=O [Compound 36]
- blood and plasma half-lives [1]: approximately 20 h
- blood and plasma half-lives [2]: approximately 20 h
- blood and plasma half-lives [3]: approximately 20 h

- activity as Hb allosteric modulator (result in words) [4]: inactive
SMILES: COc1ccc(OCc2cccnc2-c2ccnn2C(C)C)cn1 [Compound 46]

- time to maximum effect on Hb oxygenation (surrogate for on-rate) (Purified Hb; compound 100 µM): ~1 h
SMILES: COc1ccc(OCc2cccnc2)c(C=O)c1 [Compound 4]

- time to maximum effect on Hb oxygenation (surrogate for on-rate) (Purified Hb; compound 5 mM): ~1 h
SMILES: O=Cc1ccc(CO)o1 [Compound 1, 5-hydroxymethylfurfural]
